Experimental data taken from article PMC5218480 (PLoS ONE, 2017).

System: MV-4-11 cells
Test: Gene expression microarray analysis (Affymetrix PrimeView) and GSEA
Assay type: cell-based, human
Design: RFU PODN (11730768_x_at) / Fold change /veh PODN (11730768_x_at) / RFU LINC00158 (11744669_a_at) / Fold change /veh LINC00158 (11744669_a_at) / RFU DUSP10 (11751237_a_at) / Fold change /veh DUSP10 (11751237_a_at) / RFU ID3 (11757404_x_at) / Fold change /veh ID3 (11757404_x_at) / RFU PLEKHG5 (11737974_s_at) / Fold change /veh PLEKHG5 (11737974_s_at) / RFU LRRC4B (11730491_at) / Fold change /veh LRRC4B (11730491_at) / RFU GIMAP4 (11747438_a_at) / Fold change /veh GIMAP4 (11747438_a_at) / RFU KRT8 (11758183_x_at) / Fold change /veh KRT8 (11758183_x_at) / RFU CNN1 (11734310_a_at) / Fold change /veh CNN1 (11734310_a_at) / RFU VPS37D (11726825_at) / Fold change /veh VPS37D (11726825_at) / RFU C10orf10 (11716522_x_at) / Fold change /veh C10orf10 (11716522_x_at) / RFU KIR2DL2 /// KIR2DL4 /// KIR2DL5A /// KIR2DL5B /// KIR2DS1 /// KIR2DS2 /// KIR2DS3 /// KIR2DS4 /// KIR3DL3 /// KIR3DL3 /// KIR3DS1 (11738374_at) / Fold change /veh KIR2DL2 /// KIR2DL4 /// KIR2DL5A /// KIR2DL5B /// KIR2DS1 /// KIR2DS2 /// KIR2DS3 /// KIR2DS4 /// KIR3DL3 /// KIR3DL3 /// KIR3DS1 (11738374_at) / RFU C1QL1 (11718748_at) / Fold change /veh C1QL1 (11718748_at) / RFU TMPRSS4 (11747572_a_at) / Fold change /veh TMPRSS4 (11747572_a_at) / RFU HAMP (11756126_x_at) / Fold change /veh HAMP (11756126_x_at) / RFU RNFT2 (11725882_a_at) / Fold change /veh RNFT2 (11725882_a_at) / RFU NR4A2 (11747474_a_at) / Fold change /veh NR4A2 (11747474_a_at) / RFU ABCC12 (11746883_a_at) / Fold change /veh ABCC12 (11746883_a_at) / RFU TMEM136 (11760407_x_at) / Fold change /veh TMEM136 (11760407_x_at) / RFU CLDN22 /// WWC2 (11732394_at) / Fold change /veh CLDN22 /// WWC2 (11732394_at) / RFU HLA-DPB1 (11760878_x_at) / Fold change /veh HLA-DPB1 (11760878_x_at) / RFU SPINT1 (11716480_a_at) / Fold change /veh SPINT1 (11716480_a_at) / RFU GAP43 (11754022_s_at) / Fold change /veh GAP43 (11754022_s_at) / RFU A4GNT (11735810_at) / Fold change /veh A4GNT (11735810_at) / RFU PRB3 (11715151_x_at) / Fold change /veh PRB3 (11715151_x_at) / RFU TUBB4B (11761932_at) / Fold change /veh TUBB4B (11761932_at) / RFU CAPN14 (11732068_a_at) / Fold change /veh CAPN14 (11732068_a_at) / RFU TMCC2 (11721928_a_at) / Fold change /veh TMCC2 (11721928_a_at) / RFU IRGQ (11745062_a_at) / Fold change /veh IRGQ (11745062_a_at) / RFU FAM174B (11720279_a_at) / Fold change /veh FAM174B (11720279_a_at) / RFU TMPRSS4 (11748680_a_at) / Fold change /veh TMPRSS4 (11748680_a_at) / RFU FAM212B (11763350_a_at) / Fold change /veh FAM212B (11763350_a_at) / RFU PLEKHG5 (11743358_a_at) / Fold change /veh PLEKHG5 (11743358_a_at) / RFU ZSCAN30 (11745921_a_at) / Fold change /veh ZSCAN30 (11745921_a_at) / RFU CMKLR1 (11741424_a_at) / Fold change /veh CMKLR1 (11741424_a_at) / RFU LOC101060620 /// MAPK8IP1 (11723275_at) / Fold change /veh LOC101060620 /// MAPK8IP1 (11723275_at) / RFU SPTSSB (11747773_x_at) / Fold change /veh SPTSSB (11747773_x_at) / RFU PRSS12 (11739890_at) / Fold change /veh PRSS12 (11739890_at) / RFU BIN1 (11741810_x_at) / Fold change /veh BIN1 (11741810_x_at) / RFU WNT11 (11732464_a_at) / Fold change /veh WNT11 (11732464_a_at) / RFU C10orf10 (11716521_a_at) / Fold change /veh C10orf10 (11716521_a_at) / RFU C5orf56 (11738089_at) / Fold change /veh C5orf56 (11738089_at) / RFU CYB561 (11721691_x_at) / Fold change /veh CYB561 (11721691_x_at) / RFU ANKRD19P (11752326_a_at) / Fold change /veh ANKRD19P (11752326_a_at) / RFU OR2T12 /// OR2T33 /// OR2T8 (11738714_s_at) / Fold change /veh OR2T12 /// OR2T33 /// OR2T8 (11738714_s_at) / RFU VCAN (11748164_a_at) / Fold change /veh VCAN (11748164_a_at) / RFU JSRP1 (11732532_at) / Fold change /veh JSRP1 (11732532_at) / RFU KRTAP10-11 (11738290_x_at) / Fold change /veh KRTAP10-11 (11738290_x_at) / RFU MYO3A (11730013_a_at) / Fold change /veh MYO3A (11730013_a_at) / RFU EBF3 (11725865_a_at) / Fold change /veh EBF3 (11725865_a_at) / RFU CAMK2N1 (11719241_x_at) / Fold change /veh CAMK2N1 (11719241_x_at) / RFU C5orf56 (11738088_a_at) / Fold change /veh C5orf56 (11738088_a_at) / RFU OLFML3 (11715873_a_at) / Fold change /veh OLFML3 (11715873_a_at) / RFU LOC100653217 /// NTM (11731650_a_at) / Fold change /veh LOC100653217 /// NTM (11731650_a_at) / RFU MAPK11 (11762145_a_at) / Fold change /veh MAPK11 (11762145_a_at) / RFU FIZ1 (11724087_x_at) / Fold change /veh FIZ1 (11724087_x_at) / RFU OASL (11726364_x_at) / Fold change /veh OASL (11726364_x_at) / RFU SOX15 (11748057_x_at) / Fold change /veh SOX15 (11748057_x_at) / RFU CD79A (11719716_a_at) / Fold change /veh CD79A (11719716_a_at) / RFU HIST1H1D (11736915_at) / Fold change /veh HIST1H1D (11736915_at) / RFU CASKIN2 (11723855_a_at) / Fold change /veh CASKIN2 (11723855_a_at) / RFU LOC730098 (11760151_x_at) / Fold change /veh LOC730098 (11760151_x_at) / RFU OR4N2 (11742367_at) / Fold change /veh OR4N2 (11742367_at) / RFU PRRT2 (11749266_a_at) / Fold change /veh PRRT2 (11749266_a_at) / RFU SNX32 (11753110_a_at) / Fold change /veh SNX32 (11753110_a_at) / RFU CDHR5 (11726645_a_at) / Fold change /veh CDHR5 (11726645_a_at) / RFU RCAN1 (11760418_a_at) / Fold change /veh RCAN1 (11760418_a_at) / RFU FAM167A (11723789_a_at) / Fold change /veh FAM167A (11723789_a_at) / RFU FAM26E (11764081_at) / Fold change /veh FAM26E (11764081_at) / RFU ISYNA1 (11749810_s_at) / Fold change /veh ISYNA1 (11749810_s_at) / RFU ACY1 (11761880_at) / Fold change /veh ACY1 (11761880_at) / RFU 11764098_at / Fold change /veh 11764098_at / RFU SAMD14 (11745864_x_at) / Fold change /veh SAMD14 (11745864_x_at) / RFU NPB (11741838_a_at) / Fold change /veh NPB (11741838_a_at) / RFU TMPRSS6 (11731388_a_at) / Fold change /veh TMPRSS6 (11731388_a_at) / RFU KRTAP10-2 (11738614_at) / Fold change /veh KRTAP10-2 (11738614_at) / RFU ARHGAP8 /// PRR5-ARHGAP8 (11727945_x_at) / Fold change /veh ARHGAP8 /// PRR5-ARHGAP8 (11727945_x_at) / RFU KRTAP5-7 /// NADSYN1 (11734609_at) / Fold change /veh KRTAP5-7 /// NADSYN1 (11734609_at) / RFU RASL12 (11751679_a_at) / Fold change /veh RASL12 (11751679_a_at) / RFU CDKN2B (11736163_a_at) / Fold change /veh CDKN2B (11736163_a_at) / RFU PRF1 (11729649_at) / Fold change /veh PRF1 (11729649_at) / RFU, ZNF638 /// ZNF638-IT1 / Fold change vs veh, ZNF638 /// ZNF638-IT1 / RFU, PANK3 / Fold change vs veh, PANK3 / RFU, SH3YL1 / Fold change vs veh, SH3YL1 / RFU, ZEB2 / Fold change vs veh, ZEB2 / RFU, NRIP1 / Fold change vs veh, NRIP1 / RFU, PTTG1IP / Fold change vs veh, PTTG1IP / RFU, CAPN2 / Fold change vs veh, CAPN2 / RFU, MED14 / Fold change vs veh, MED14 / RFU, SNORA58 / Fold change vs veh, SNORA58 / RFU, C1orf63 / Fold change vs veh, C1orf63 / RFU, LRRFIP1 / Fold change vs veh, LRRFIP1 / RFU, NDUFAF7 / Fold change vs veh, NDUFAF7 / RFU, SLC12A2 / Fold change vs veh, SLC12A2 / RFU, IBTK / Fold change vs veh, IBTK / RFU, ESF1 / Fold change vs veh, ESF1 / Fold change vs veh, TMEM50B / RFU, TAOK1 / Fold change vs veh, TAOK1 / RFU, ACBD3 / Fold change vs veh, ACBD3 / RFU, TMA16 / Fold change vs veh, TMA16 / RFU, RWDD3 / Fold change vs veh, RWDD3 / RFU, BCAT1 / Fold change vs veh, BCAT1 / RFU, EDEM3 / Fold change vs veh, EDEM3 / RFU, TMEM33 / Fold change vs veh, TMEM33 / RFU, WDR75 / Fold change vs veh, WDR75 / RFU, AHCTF1 / Fold change vs veh, AHCTF1 / RFU, TFRC / Fold change vs veh, TFRC / RFU, ZDHHC17 / Fold change vs veh, ZDHHC17 / RFU, NOM1 / Fold change vs veh, NOM1 / RFU, ARL8B / Fold change vs veh, ARL8B / RFU, ZBTB11 / Fold change vs veh, ZBTB11 / RFU, TAMM41 / Fold change vs veh, TAMM41 / RFU, KIAA1704 /// LOC100996395 / Fold change vs veh, KIAA1704 /// LOC100996395 / RFU, ING1 / Fold change vs veh, ING1 / RFU, TRMT61B / Fold change vs veh, TRMT61B / RFU, FUBP3 / Fold change vs veh, FUBP3 / RFU, TP53 / Fold change vs veh, TP53 / RFU, TNKS2 / Fold change vs veh, TNKS2 / RFU, ZFP14 / Fold change vs veh, ZFP14 / RFU, ACTR2 / Fold change vs veh, ACTR2 / RFU, PPP3R1 / Fold change vs veh, PPP3R1 / RFU, PIK3R1 / Fold change vs veh, PIK3R1 / RFU, HNRNPA1 / Fold change vs veh, HNRNPA1 / RFU, RNF170 / Fold change vs veh, RNF170 / RFU, ZNF28 / Fold change vs veh, ZNF28 / RFU, RNGTT / Fold change vs veh, RNGTT / RFU, OGT / Fold change vs veh, OGT / RFU, BRD1 / Fold change vs veh, BRD1 / RFU, MARS / Fold change vs veh, MARS / RFU, ZNF655 / Fold change vs veh, ZNF655 / RFU, FAHD1 / Fold change vs veh, FAHD1 / RFU, BDP1 / Fold change vs veh, BDP1 / RFU, LRRCC1 / Fold change vs veh, LRRCC1 / RFU, ARID1A / Fold change vs veh, ARID1A / RFU, ZNF146 / Fold change vs veh, ZNF146 / RFU, ZNF330 / Fold change vs veh, ZNF330 / RFU, GPN3 / Fold change vs veh, GPN3 / RFU, C9orf123 / Fold change vs veh, C9orf123 / RFU, N4BP2L2 / Fold change vs veh, N4BP2L2 / RFU, ARFIP1 / Fold change vs veh, ARFIP1 / RFU, FAM179B / Fold change vs veh, FAM179B / RFU, BCL10 / Fold change vs veh, BCL10 / RFU, UHRF1BP1L / Fold change vs veh, UHRF1BP1L / RFU, BET1 / Fold change vs veh, BET1 / RFU, CNOT2 / Fold change vs veh, CNOT2 / RFU, ZNF268 / Fold change vs veh, ZNF268 / Fold change vs veh, ZNF507 / RFU, DGCR2 / Fold change vs veh, DGCR2 / RFU, WDSUB1 / Fold change vs veh, WDSUB1 / Fold change vs veh, HSP90B1 /// MIR3652 / RFU, ADSS / Fold change vs veh, ADSS / RFU, GK / Fold change vs veh, GK / RFU, ZNF148 / Fold change vs veh, ZNF148 / RFU, TAF9 / Fold change vs veh, TAF9 / RFU, SLC1A5 / Fold change vs veh, SLC1A5 / RFU, SLMO2 / Fold change vs veh, SLMO2 / RFU, ABCC4 / Fold change vs veh, ABCC4 / RFU, LOC101060439 /// RAP1B / Fold change vs veh, LOC101060439 /// RAP1B / RFU, RFX7 / Fold change vs veh, RFX7 / RFU, GTPBP10 / Fold change vs veh, GTPBP10 / RFU, CNEP1R1 / Fold change vs veh, CNEP1R1 / RFU, BIVM-ERCC5 /// ERCC5 / Fold change vs veh, BIVM-ERCC5 /// ERCC5 / RFU, ILF3 / Fold change vs veh, ILF3 / RFU 11762660_at / Fold change /veh 11762660_at / RFU VCAN (11757783_s_at) / Fold change /veh VCAN (11757783_s_at) / RFU DDX43 (11728927_at) / Fold change /veh DDX43 (11728927_at) / RFU KRT8 (11758188_x_at) / Fold change /veh KRT8 (11758188_x_at) / RFU NKD1 (11759106_at) / Fold change /veh NKD1 (11759106_at) / RFU SRD5A1 (11742802_a_at) / Fold change /veh SRD5A1 (11742802_a_at) / RFU TPSAB1 /// TPSB2 (11721975_s_at) / Fold change /veh TPSAB1 /// TPSB2 (11721975_s_at) / RFU GSTM3 (11746129_a_at) / Fold change /veh GSTM3 (11746129_a_at) / RFU IL23R (11737362_x_at) / Fold change /veh IL23R (11737362_x_at) / RFU TMEM51 (11727254_a_at) / Fold change /veh TMEM51 (11727254_a_at) / RFU PIWIL2 (11732686_x_at) / Fold change /veh PIWIL2 (11732686_x_at) / RFU ORM1 (11744905_x_at) / Fold change /veh ORM1 (11744905_x_at) / RFU CCDC152 (11743942_at) / Fold change /veh CCDC152 (11743942_at) / RFU ECM1 (11717891_a_at) / Fold change /veh ECM1 (11717891_a_at) / RFU IL23R (11748794_a_at) / Fold change /veh IL23R (11748794_a_at) / RFU TNFAIP8L3 (11732012_x_at) / Fold change /veh TNFAIP8L3 (11732012_x_at) / RFU MBOAT4 (11741988_at) / Fold change /veh MBOAT4 (11741988_at) / RFU 11764193_at / Fold change /veh 11764193_at / RFU TMEM53 (11763286_at) / Fold change /veh TMEM53 (11763286_at) / RFU MAGEB2 (11727129_at) / Fold change /veh MAGEB2 (11727129_at) / RFU TMEM200A (11744735_a_at) / Fold change /veh TMEM200A (11744735_a_at) / RFU CCDC152 (11751479_a_at) / Fold change /veh CCDC152 (11751479_a_at) / RFU FAM211A (11726209_a_at) / Fold change /veh FAM211A (11726209_a_at) / RFU RGS16 (11746705_a_at) / Fold change /veh RGS16 (11746705_a_at) / RFU VCAN (11755009_s_at) / Fold change /veh VCAN (11755009_s_at) / RFU RHOB (11743442_s_at) / Fold change /veh RHOB (11743442_s_at) / RFU RGS16 (11720943_a_at) / Fold change /veh RGS16 (11720943_a_at) / RFU RGS16 (11720944_at) / Fold change /veh RGS16 (11720944_at) / RFU, VPS4B / Fold change vs veh, VPS4B / RFU, CREB1 / Fold change vs veh, CREB1 / RFU, DNAJC13 / Fold change vs veh, DNAJC13 / RFU, GNAQ / Fold change vs veh, GNAQ / RFU, CDK5R1 / Fold change vs veh, CDK5R1 / RFU, ZRANB3 / Fold change vs veh, ZRANB3 / RFU, CUL4A / Fold change vs veh, CUL4A / RFU, CCNY / Fold change vs veh, CCNY / RFU, UFL1 / Fold change vs veh, UFL1 / RFU, COG3 / Fold change vs veh, COG3 / RFU, DIAPH2 / Fold change vs veh, DIAPH2 / RFU, SKA2 / Fold change vs veh, SKA2 / RFU, AFF3 / Fold change vs veh, AFF3 / RFU, LMF1 / Fold change vs veh, LMF1 / RFU, IPO11 / Fold change vs veh, IPO11 / RFU, DFFB / Fold change vs veh, DFFB / RFU, FOXP1 / Fold change vs veh, FOXP1 / RFU, CARD8 / Fold change vs veh, CARD8 / RFU, STRN3 / Fold change vs veh, STRN3 / RFU, ADK / Fold change vs veh, ADK / RFU, RASSF2 / Fold change vs veh, RASSF2 / RFU, WIPF1 / Fold change vs veh, WIPF1 / RFU, LARP1B / Fold change vs veh, LARP1B / RFU, RASA1 / Fold change vs veh, RASA1 / RFU, RB1 / Fold change vs veh, RB1 / RFU, PPFIA1 / Fold change vs veh, PPFIA1 / RFU, MAT2A / Fold change vs veh, MAT2A / RFU, CCT5 / Fold change vs veh, CCT5 / RFU, WDR92 / Fold change vs veh, WDR92 / RFU, CUX1 / Fold change vs veh, CUX1 / RFU, TTC7A / Fold change vs veh, TTC7A / RFU, TMEM135 / Fold change vs veh, TMEM135 / RFU, DEPTOR / Fold change vs veh, DEPTOR / RFU, CPM / Fold change vs veh, CPM / RFU, DNAJB6 / Fold change vs veh, DNAJB6 / RFU, CACNA2D3 / Fold change vs veh, CACNA2D3 / RFU, DTX4 / Fold change vs veh, DTX4 / RFU, TFCP2 / Fold change vs veh, TFCP2 / RFU, GMCL1 /// GMCL1P1 / Fold change vs veh, GMCL1 /// GMCL1P1 / RFU, AEBP2 / Fold change vs veh, AEBP2 / RFU, SNHG1 /// SNORD22 /// SNORD25 /// SNORD26 /// SNORD27 /// SNORD28 /// SNORD29 /// SNORD31 / Fold change vs veh, SNHG1 /// SNORD22 /// SNORD25 /// SNORD26 /// SNORD27 /// SNORD28 /// SNORD29 /// SNORD31 / Fold change (Aza/veh), C12orf56 (ProbeSet 11735607_a_at) / Fold change (ACY-1035/veh), C12orf56 (ProbeSet 11735607_a_at) / Fold change (Aza/veh), FGFR1OP (ProbeSet 11751329_s_at) / Fold change (ACY-1035/veh), FGFR1OP (ProbeSet 11751329_s_at) / Fold change (Aza/veh), VPS36 (ProbeSet 11739960_a_at) / Fold change (ACY-1035/veh), VPS36 (ProbeSet 11739960_a_at) / RFU SYPL1 (11715823_x_at) / Fold change /veh SYPL1 (11715823_x_at) / RFU IGFBP7 (11715501_s_at) / Fold change /veh IGFBP7 (11715501_s_at) / RFU REEP3 (11722064_at) / Fold change /veh REEP3 (11722064_at) / RFU IGLL1 (11728026_x_at) / Fold change /veh IGLL1 (11728026_x_at): dose or concentration left out as unconfirmed
Conditions: MV-4-11 cells, 48 hours

Nc1ncn([C@@H]2O[C@H](CO)[C@@H](O)[C@H]2O)c(=O)n1 [azacitidine]
Fold change /veh VCAN (11757783_s_at): 1.30
